Laboratory results from patent US20040029829A1, “External skin preparations and process for producing the same” (priority 2000, published 2004).

Tested on: human epidermic cells
Experiment: Cell activation effect by cell culture (metabolic activity, WST-1)
Format: cell-based
Details: 0.5% fermented product 1 (SB), alone or combined
Method: Immortalized cells obtained by transforming human epidermic cells (manufactured by Kurabo Industries, Ltd.) using SV40 virus T antigen according to the method of Yasumoto et al. (Cultured Cell Experiment For Molecular Biology Research by S. Yasumoto, edited by T. Kuroki et al., Yodosha Co., Ltd., 1995, pp 191-200) were used as test cells. The cells were disseminated in a 96 well plate (4×10^3 cells/0.1 ml/well) and cultured in a serum-free liquid medium for proliferation (HuMedia-KG 2: Kurabo Industries, Ltd.) under the conditions of 37° C. and a CO2 concentration of 5%. […] The cells were also cultured in media to which the above components were individually added as Comparative Examples, and in a medium to which none of these components were added as a control. On the third day of culturing, a reducing-type coloring reagent (WST-1, manufactured by Dojindo Co.) was added in an amount of 10 μl/well, followed by incubation for 2 hours under the conditions of 37° C. and a CO2 concentration of 5%. Then, absorption at 450-660 nm was measured. Metabolic activity of the cells was calculated from the resulting absorbance. The cell activation effect was evaluated from the rate of increase in the metabolic activity in comparison with the control sample. […]

Structure (SMILES)	metabolic activity of human epidermic cells (5×10^−10 M all-trans-retinoic acid (RA), FIG. 2)	metabolic activity of human epidermic cells (5×10^−9 M all-trans-retinol (ROH), FIG. 1)
CC1=C(/C=C/C(C)=C/C=C/C(C)=C/C(=O)O)C(C)(C)CCC1 [all-trans-retinoic acid]	cannot exhibit metabolic activity	
CC1=C(/C=C/C(C)=C/C=C/C(C)=C/CO)C(C)(C)CCC1 [all-trans-retinol]		cannot exhibit metabolic activity
